Holding throughout (assay type): cell-based
The test system of one data set is NCI 60 cell panel. Nature of the data set: DTP-NCI assay (NCI 60 cell screen, single high dose). As to conditions: Homo sapiens, 48 h; single high dose 10^-5 M, full NCI 60 cell panel; growth relative to no-drug control and to time zero number of cells; read-out: DTP-NCI (mean of the percent growth of treated cells). Here is the method: The effect of 10 μM of MTF504 was monitored on a panel 60 cell lines representing nine distinct tumour types: leukemia, colon, lung, central nervous system, renal, melanoma, ovarian, breast and prostate. Briefly, the compound was sent to the US National Cancer Institute where its antineoplastic effects were monitored on the panel of cell lines after 48 hours of treatment following a standardized protocol.
All compounds submitted to the NCI 60 Cell screen are tested initially at a single high dose (10^-5 M) in the full NCI 60 cell panel. The results are reported as a mean of the percent growth of treated cells. The number reported is growth relative to the no-drug control, and relative to the time zero number of cells. This allows detection of […].

In a further data set the test system is A375. Nature of the data set: Cell viability of A375 melanoma cells by Trypan Blue exclusion. The note with it: for viability at 5 µM / viability at 10 µM: Homo sapiens, A-375, viable cells as mean percentage of control cells ± SEM, N=3. Here is the method: The BRAFV600E mutant melanoma line A375 (CRL-1619) was purchased from ATCC (Manassas, VA, USA). The A375 were maintained in glutamine-containing DMEM supplemented with 10% heat-inactivated fetal bovine serum, penicillin (100 units/ml) and streptomycin ([…]).
(§1) Cell viability was measured by the Trypan Blue exclusion method. Briefly, cells washed with PBS were harvested by a 3-minute incubation in 0.05% trypsin before neutralization with serum containing medium. An aliquot of the cell suspension was then mixed 1:1 with a 0.4% Trypan blue solution and viable cells were counted within 5 minutes on Kova slides under an optical microscope. Results are expressed as the mean percentage of control cells±SEM. N=3

For a further data set, the system named is normal human melanocytes. Nature of the data set: Toxicity on normal human melanocytes by Trypan blue counting. As to conditions: FIG. 3. Here is the method: Normal human melanocytes were obtained from the foreskins of Caucasian children and grown in MCDB 153 medium supplemented with 2% fetal calf serum, 0.5 mg/ml hydrocortisone, 5 mg/ml insulin, 16 nM phorbol-12 myristate 13-acetate, 1 ng/ml basic fibroblast growth factor, 20 mg/ml bovine pituitary extract, […], and penicillin/streptomycin (100 U/ml/[…]). All cells were maintained in humidified incubators at 37° C. with 5% CO2.
as §1

The mark [1] stands for this setting: 24 h, read-out: Viab A375 5 μM/24 h.
[2] abbreviates: 48 h, read-out: Viab A375 5 μM/48 h.
Where [3] appears, read: 24 h, read-out: Viab A375 10 μM/24 h.
Where [4] appears, read: 48 h, read-out: Viab A375 10 μM/48 h.

Where two headings read alike, the source gives them in different places.

For the molecule `N=C(NC(=O)Nc1ccccc1Cl)Nc1nc2ccccc2s1` [MTF504, N-benzo[d]thiazol-2-yl-N″-(2-chloroaniline-carbonyl)-guanidine], the activity at 10 µM in the data set on NCI 60 cell panel was found to be 25.4%. In addition, the viability at 5 µM was determined as 26% with A375 (setting [1]) and 7.1% with A375 (setting [2]). The “decrease of melanoma cell viability versus CRO15 and MTF319” value in the data set on A375 (after 24 hours of treatment, FIG. 5) is given as “more efficient than previously reported compounds”. In addition, the “toxicity on normal human melanocytes” value in the data set on normal human melanocytes is on record as “absence of toxicity”.

In the case of `Cc1ccccc1NC(=O)NC(=N)Nc1nc(C)c(C)s1` [MTF509, 4,5-dimethylthiazol-2-yl-N″-(2-methylaniline-carbonyl)-guanidine], in the data set with NCI 60 cell panel, the activity at 10 µM was found to be 29.3%. In addition, the viability at 5 µM in the data set on A375 (setting [1]) amounted to 23%; in the data set with A375 (setting [2]), 13.6%.

In the case of `Cc1cccc(NC(=O)NC(=N)Nc2nc3ccccc3s2)c1` [MTF420, N-benzo[d]thiazol-2-yl-N″-(3-methylaniline-carbonyl)-guanidine], the activity at 10 µM in the data set with NCI 60 cell panel turned out to be 32.9%. Moreover, the viability at 5 µM in the data set with A375 (setting [1]) was 59%; with A375 (setting [2]), 24.8%. For the same molecule, the viability at 10 µM stood at 48.9% in the data set with A375 (setting [3]) and 20.4% in the data set with A375 (setting [4]).

Turning to `N=C(NC(=O)Nc1ccccc1)Nc1nc2ccccc2s1` [MTF314, N—(N-(benzo[d]thiazol-2-yl)carbamimidoyl)-anilinocarboxamide], the activity at 10 µM with NCI 60 cell panel stood at 37.4%. In addition, the viability at 5 µM in the data set with A375 (setting [1]) was found to be 53.5%; with A375 (setting [2]), 12.3%. For the same molecule, the viability at 10 µM came out at 32.7% in the data set on A375 (setting [3]) and 7.6% in the data set with A375 (setting [4]).

On to `Cc1nc(NC(=N)NC(=O)Nc2cccc(Cl)c2)sc1C` [MTF506, 4,5-dimethylthiazol-2-yl-N″-(3-chloroaniline-carbonyl)-guanidine], for which, in the data set with NCI 60 cell panel, the activity at 10 µM is 67.7%. Also, the results for the viability at 5 µM in the data set on A375 (setting [1]) and with A375 (setting [2]) were 64.3% and 54.5%, respectively.
